How the values were obtained:
CK1δ = CK1δ (Homo sapiens (Human), UniProt P48730); experiment: CK1δ kinase assay (Caliper LABCHIP electrophoretic separation of fluoresceinated peptide substrate and product); assay type: biochemical; conditions: 200 pM CK1δ, 50 μM ATP, 1.5 μM peptide substrate, 22 hours at room temperature; read-out: CK1δ (IC50)
Procedure, shortened: (§1)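 Incubated for twenty-two hours at ambient temperature, then quenched with EDTA and analyzed by electrophoretic separation of unphosphorylated and phosphorylated peptide.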

CK1ε = CK1ε (Homo sapiens (Human), UniProt P49674); experiment: CK1ε kinase assay (Caliper LABCHIP electrophoretic separation of fluoresceinated peptide substrate and product); assay type: biochemical; conditions: 200 pM CK1ε, 50 μM ATP, 1.5 μM peptide substrate, 22 hours at room temperature; read-out: CK1ε (IC50)
Procedure, shortened: as §1

Chain of CK1ε (P49674 whole entry): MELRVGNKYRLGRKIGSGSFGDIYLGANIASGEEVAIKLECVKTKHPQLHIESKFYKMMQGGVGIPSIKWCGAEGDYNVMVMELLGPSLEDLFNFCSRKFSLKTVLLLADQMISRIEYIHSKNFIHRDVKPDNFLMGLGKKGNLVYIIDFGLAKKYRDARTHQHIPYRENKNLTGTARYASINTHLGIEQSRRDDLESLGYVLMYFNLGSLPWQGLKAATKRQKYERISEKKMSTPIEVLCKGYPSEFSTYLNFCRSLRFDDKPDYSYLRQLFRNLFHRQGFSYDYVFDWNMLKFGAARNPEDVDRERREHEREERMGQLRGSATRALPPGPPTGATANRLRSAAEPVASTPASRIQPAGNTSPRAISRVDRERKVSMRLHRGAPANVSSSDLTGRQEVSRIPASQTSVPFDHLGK
Chain of CK1δ (P48730 whole entry): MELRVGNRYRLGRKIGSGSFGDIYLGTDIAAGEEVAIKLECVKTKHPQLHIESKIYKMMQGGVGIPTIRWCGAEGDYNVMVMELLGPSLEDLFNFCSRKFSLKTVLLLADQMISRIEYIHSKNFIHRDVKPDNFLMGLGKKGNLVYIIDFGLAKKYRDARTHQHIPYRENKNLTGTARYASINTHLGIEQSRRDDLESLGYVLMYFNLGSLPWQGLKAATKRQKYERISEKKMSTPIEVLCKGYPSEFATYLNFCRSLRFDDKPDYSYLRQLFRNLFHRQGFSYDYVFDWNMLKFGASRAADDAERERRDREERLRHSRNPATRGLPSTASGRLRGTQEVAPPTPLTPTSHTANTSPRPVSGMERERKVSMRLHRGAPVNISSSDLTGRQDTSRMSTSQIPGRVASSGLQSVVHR

IC50 (CK1δ) [nM]	IC50 (CK1ε) [nM]	Structure (SMILES)
0.01 to 10	0.01 to 10	NC(=O)c1c(-c2cccc(Cl)c2)nn2c1CN(C(=O)Nc1ccc(F)c(F)c1)CC2 [Compound 156, 2-(3-Chlorophenyl)-N^5-(3,4-difluorophenyl)-6,7-dihydropyrazolo[1,5-a]pyrazine-3,5(4H)-dicarboxamide]
0.01 to 10	0.01 to 10	NC(=O)c1c(-c2cccc(Cl)c2)nn2c1CN(C(=O)Nc1ccc(F)cc1)CC2 [Compound 157, 2-(3-Chlorophenyl)-N^5-(4-fluorophenyl)-6,7-dihydropyrazolo[1,5-a]pyrazine-3,5(4H)-dicarboxamide]
0.01 to 10	0.01 to 10	N#Cc1cccc(NC(=O)N2CCn3nc(-c4cccc(Cl)c4)c(C(N)=O)c3C2)c1 [Compound 161, 2-(3-Chlorophenyl)-N^5-(3-cyanophenyl)-6,7-dihydropyrazolo[1,5-a] pyrazine-3,5(4H)-dicarboxamide]
0.01 to 10	0.01 to 10	NC(=O)c1c(-c2cccc(Cl)c2)nn2c1CN(C(=O)Nc1ccc(Cl)c(Cl)c1)CC2 [Compound 164, 2-(3-Chlorophenyl)-N^5-(3,4-dichlorophenyl)-6,7-dihydropyrazolo[1,5-a] pyrazine-3,5(4H)-dicarboxamide]
0.01 to 10	0.01 to 10	NC(=O)c1c(-c2cccc(Cl)c2)nn2c1CN(C(=O)Nc1cccc(F)c1)CC2 [Compound 167, 2-(3-Chlorophenyl)-N^5-(3-fluorophenyl)-6,7-dihydropyrazolo[1,5-a] pyrazine-3,5(4H)-dicarboxamide]
0.01 to 10	0.01 to 10	NC(=O)c1c(-c2cccc(Cl)c2)nn2c1CN(C(=O)Nc1cc(F)cc(F)c1)CC2 [Compound 169, 2-(3-Chlorophenyl)-N^5-(3,5-difluorophenyl)-6,7-dihydropyrazolo[1,5-a] pyrazine-3,5(4H)-dicarboxamide]
0.01 to 10	0.01 to 10	COc1cccc(NC(=O)N2CCn3nc(-c4cccc(Cl)c4)c(C(N)=O)c3C2)c1 [Compound 170, 2-(3-Chlorophenyl)-N^5-(3-methoxyphenyl)-6,7-dihydropyrazolo[1,5-a] pyrazine-3,5(4H)-dicarboxamide]
0.01 to 10	0.01 to 10	NC(=O)c1c(-c2cccc(Cl)c2)nn2c1CN(C(=O)Nc1ccc(Cl)nc1)CC2 [Compound 171, 2-(3-Chlorophenyl)-N^5-(6-chloropyridin-3-yl)-6,7-dihydropyrazolo[1,5-a] pyrazine-3,5(4H)-dicarboxamide]
0.01 to 10	0.01 to 10	N#Cc1ccc(NC(=O)N2CCn3nc(-c4ccc(F)c(Cl)c4)c(C(N)=O)c3C2)cc1 [Compound 172]
0.01 to 10	0.01 to 10	NC(=O)c1c(-c2ccc(F)c(Cl)c2)nn2c1CN(C(=O)Nc1cc(Cl)cc(Cl)c1)CC2 [Compound 173, 2-(3-Chloro-4-fluorophenyl)-N^5-(3,5-dichlorophenyl)-6,7-dihydropyrazolo[1,5-a] pyrazine-3,5(4H)-dicarboxamide]
0.01 to 10	0.01 to 10	Cc1ccc(NC(=O)N2CCn3nc(-c4ccc(F)c(Cl)c4)c(C(N)=O)c3C2)cc1C [Compound 175, 2-(3-Chloro-4-fluorophenyl)-N^5-(3,4-dimethylphenyl)-6,7-dihydropyrazolo[1,5-a] pyrazine-3,5(4H)-dicarboxamide]
0.01 to 10	0.01 to 10	NC(=O)c1c(-c2ccc(F)c(Cl)c2)nn2c1CN(C(=O)Nc1ccc(C(F)(F)F)c(Cl)c1)CC2 [Compound 176, N^5-(3-Chloro-4-(trifluoromethyl)phenyl)-2-(3-chloro-4-fluorophenyl)-6,7-dihydropyrazolo[1,5-a] pyrazine-3,5(4H)-dicarboxamide]
0.01 to 10	0.01 to 10	NC(=O)c1ccc(NC(=O)N2CCn3nc(-c4ccc(F)c(Cl)c4)c(C(N)=O)c3C2)cc1 [Compound 180, N^5-(4-Carbamoylphenyl)-2-(3-chloro-4-fluorophenyl)-6,7-dihydropyrazolo[1,5-a] pyrazine-3,5(4H)-dicarboxamide]
0.01 to 10	0.01 to 10	NC(=O)c1c(-c2ccc(F)c(Cl)c2)nn2c1CN(C(=O)Nc1ccc(OC(F)(F)F)cc1)CC2 [Compound 181, 2-(3-Chloro-4-fluorophenyl)-N^5-(4-(trifluoromethoxy)phenyl)-6,7-dihydropyrazolo[1,5-a] pyrazine-3,5(4H)-dicarboxamide]
0.01 to 10	0.01 to 10	NC(=O)c1c(-c2ccc(F)c(Cl)c2)nn2c1CN(C(=O)Nc1ccc(Cl)c(Cl)c1)CC2 [Compound 182, 2-(3-Chloro-4-fluorophenyl)-N^5-(3,4-dichlorophenyl)-6,7-dihydropyrazolo[1,5-a] pyrazine-3,5(4H)-dicarboxamide]
0.01 to 10	0.01 to 10	NC(=O)c1c(-c2ccc(F)c(Cl)c2)nn2c1CN(C(=O)Nc1ccc(F)c(F)c1)CC2 [Compound 183, 2-(3-Chloro-4-fluorophenyl)-N^5-(3,4-difluorophenyl)-6,7-dihydropyrazolo[1,5-a] pyrazine-3,5(4H)-dicarboxamide]
0.01 to 10	0.01 to 10	NC(=O)c1c(-c2ccc(F)c(Cl)c2)nn2c1CN(C(=O)Nc1cccc(OC(F)(F)F)c1)CC2 [Compound 184, 2-(3-Chloro-4-fluorophenyl)-N^5-(3-(trifluoromethoxy)phenyl)-6,7-dihydropyrazolo[1,5-a] pyrazine-3,5(4H)-dicarboxamide]
0.01 to 10	0.01 to 10	NC(=O)c1c(-c2ccc(F)c(Cl)c2)nn2c1CN(C(=O)Nc1ccc(F)c(Cl)c1)CC2 [Compound 185, N^5,2-Bis(3-chloro-4-fluorophenyl)-6,7-dihydropyrazolo[1,5-a] pyrazine-3,5(4H)-dicarboxamide]
0.01 to 10	0.01 to 10	NC(=O)c1c(-c2ccc(F)c(Cl)c2)nn2c1CN(C(=O)Nc1cccc(F)c1)CC2 [Compound 186, 2-(3-Chloro-4-fluorophenyl)-N^5-(3-fluorophenyl)-6,7-dihydropyrazolo[1,5-a] pyrazine-3,5(4H)-dicarboxamide]
0.01 to 10	0.01 to 10	NC(=O)c1c(-c2ccc(F)c(Cl)c2)nn2c1CN(C(=O)Nc1cc(F)c(F)c(F)c1)CC2 [Compound 187, 2-(3-Chloro-4-fluorophenyl)-N^5-(3,4,5-trifluorophenyl)-6,7-dihydropyrazolo[1,5-a] pyrazine-3,5(4H)-dicarboxamide]
0.01 to 10	0.01 to 10	NC(=O)c1c(-c2ccc(F)c(Cl)c2)nn2c1CN(C(=O)Nc1cc(C(F)(F)F)cc(C(F)(F)F)c1)CC2 [Compound 188, N^5-(3,5-Bis(trifluoromethyl)phenyl)-2-(3-chloro-4-fluorophenyl)-6,7-dihydropyrazolo[1,5-a] pyrazine-3,5(4H)-dicarboxamide]
0.01 to 10	0.01 to 10	COc1ccc(NC(=O)N2CCn3nc(-c4ccc(F)c(Cl)c4)c(C(N)=O)c3C2)cc1C(F)(F)F [Compound 189, 2-(3-Chloro-4-fluorophenyl)-N^5-(4-methoxy-3-(trifluoromethyl)phenyl)-6,7-dihydropyrazolo[1,5-a]pyrazine-3,5(4H)-dicarboxamide]
0.01 to 10	0.01 to 10	NC(=O)c1c(-c2ccc(F)c(Cl)c2)nn2c1CN(C(=O)Nc1ccc(F)c(C(F)(F)F)c1)CC2 [Compound 190, 2-(3-Chloro-4-fluorophenyl)-N^5-(4-fluoro-3-(trifluoromethyl)phenyl)-6,7-dihydropyrazolo[1,5-a] pyrazine-3,5(4H)-dicarboxamide]
0.01 to 10	0.01 to 10	NC(=O)c1c(-c2ccc(F)c(Cl)c2)nn2c1CN(C(=O)Nc1cccc(F)c1F)CC2 [Compound 191, 2-(3-Chloro-4-fluorophenyl)-N^5-(2,3-difluorophenyl)-6,7-dihydropyrazolo[1,5-a] pyrazine-3,5(4H)-dicarboxamide]
0.01 to 10	0.01 to 10	N#Cc1ccc(NC(=O)N2CCn3nc(-c4ccc(F)c(Cl)c4)c(C(N)=O)c3C2)nc1 [Compound 193, 2-(3-Chloro-4-fluorophenyl)-N^5-(5-cyanopyridin-2-yl)-6,7-dihydropyrazolo[1,5-a] pyrazine-3,5(4H)-dicarboxamide]
0.01 to 10	0.01 to 10	CS(=O)(=O)c1ccc(NC(=O)N2CCn3nc(-c4ccc(F)c(Cl)c4)c(C(N)=O)c3C2)nc1 [Compound 195, 2-(3-Chloro-4-fluorophenyl)-N^5-(5-(methylsulfonyl)pyridin-2-yl)-6,7-dihydropyrazolo[1,5-a] pyrazine-3,5(4H)-dicarboxamide]
0.01 to 10	0.01 to 10	N#Cc1cccc(NC(=O)N2CCn3nc(-c4ccc(F)c(Cl)c4)c(C(N)=O)c3C2)c1 [Compound 200, 2-(3-Chloro-4-fluorophenyl)-N^5-(3-cyanophenyl)-6,7-dihydropyrazolo[1,5-a] pyrazine-3,5(4H)-dicarboxamide]
0.01 to 10	0.01 to 10	NC(=O)c1c(-c2ccc(Cl)c(Cl)c2)nn2c1CN(C(=O)Nc1cc(Cl)cc(Cl)c1)CC2 [Compound 206]

Structure (SMILES)	IC50 (CK1δ) [nM]	IC50 (CK1ε) [nM]
N#Cc1ccc(NC(=O)N2CCn3nc(-c4ccc(F)c(Cl)c4)c(C(N)=O)c3C2)cc1Cl [Compound 203, N^5-(3-Chloro-4-cyanophenyl)-2-(3-chloro-4-fluorophenyl)-6,7-dihydropyrazolo[1,5-a]pyrazine-3,5(4H)-dicarboxamide]	0.01 to 10	0.01 to 10
N#Cc1ccc(NC(=O)N2CCn3nc(-c4ccc(F)c(Cl)c4)c(C(N)=O)c3C2)cc1C(F)(F)F [Compound 204, 2-(3-Chloro-4-fluorophenyl)-N^5-(4-cyano-3-(trifluoromethyl)phenyl)-6,7-dihydropyrazolo[1,5-a] pyrazine-3,5(4H)-dicarboxamide]	0.01 to 10	0.01 to 10

From patent US9598423B2 (BRISTOL-MYERS SQUIBB COMPANY, priority 2013, dated 2017)
